Here are results for three compounds from patent US20040028734A1, “Use of anti-muscarinic agents and calcium channel blockers in combination” (priority 2000, published 2004).

Like-named read-outs stand apart in the source and are kept apart here.

The test system of one assay is T lymphocytes. To be noted: cited from earlier work.
Assay [1] concerns Guinea pig tracheal strip preparations. Kind of assay: tissue or blood. To be noted: Cavia porcellus, 5 min. The procedure:
Guinea pig tracheal strip preparations were pre-contracted with 5×10^−6 M carbachol for 10 minutes, to induce tone, before incubation with drug. […] Relaxation is expressed as % maximal relaxation induced by 5×10^−4 M papaverine after completion of concentration-response curves. […]

The test system is the same in assay [2]. The experiment in a line: tissue or blood. To be noted: for % Relaxation: % maximal of carbachol-induced tone, DRC to verapamil. The procedure:
Again, guinea pig tracheal strip preparations were pre-contracted with 5×10^−6 M carbachol for 10 minutes before incubation with the pre-treatment drug. The relaxation (% maximal of carbachol-induced tone) induced by the pre-treatment is shown in FIG. 2, for the following groups.

For assay [3] the following is noted: clinical level, compared with ipratropium; cited from earlier work.
The conditions of assay [4]: Frey's syndrome, single dermal application; cited from earlier work.

For the compound `CN1[C@@H]2CC[C@H]1C[C@@H](OC(=O)C(CO)c1ccccc1)C2` (some centres unmarked) [atropine, Atropine], the “effect on acetylcholine-mediated enhanced T lymphocyte proliferation” value in the assay with T lymphocytes was “abolishes this effect completely”.

For the compound `C[N+]1(C)CCC(OC(=O)C(O)(c2ccccc2)C2CCCC2)C1` (centres unmarked) [glycopyrrolate], the EC50 (as a rule, the midpoint of the concentration-response curve) in assay [1] was 9.23 nM; in assay [1] (read-out: -Log EC50 (converted)), 9.12 nM. In addition, the “% Relaxation” value in assay [2] (Group B, pre-treatment 4 × 10^−9 M) is on record as 6.5 ± 0.8%; in assay [2] (Group C, pre-treatment 4 × 10^−10 M), −0.7 ± 1.4%. The “duration of action in muscarinic antagonism” value in assay [3] was “longer duration of action in muscarinic antagonism than ipratropium”. Moreover, in assay [4], the duration of action result is given as “two day”.

The compound `COc1ccc(CCN(C)CCCC(C#N)(c2ccc(OC)c(OC)c2)C(C)C)cc1OC` (centres unmarked) [verapamil] showed an EC50 in assay [2] (Cavia porcellus) of 5000 nM.
